Literature values in publication PMC6344942 (SLAS discovery : advancing life sciences R & D, 2017).
Like-named read-outs stand apart in the source and are kept apart here.

Target: Ubc9 (Homo sapiens, UniProt P63279)
Sequence (P63279 whole entry): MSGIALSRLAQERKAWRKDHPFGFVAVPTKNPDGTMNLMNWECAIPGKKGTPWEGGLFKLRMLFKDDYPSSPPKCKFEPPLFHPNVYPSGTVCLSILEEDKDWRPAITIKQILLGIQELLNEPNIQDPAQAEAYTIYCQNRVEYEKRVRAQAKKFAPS

IC50 (prevents transfer of SUMO from Ubc9~SUMO thioester to substrate) [µM]	SMILES	IC50 (Ubc9 inhibitor) [µM]
6	O=c1cc(-c2ccc(O)c(O)c2O)oc2ccccc12 [Compound 2-D08, 2-D08]	–
–	COC(=CC(=O)O)C1c2cc3ccc(-c4ccc5cc6c(c(O)c5c4O)C(=O)CC(C)(O)C6C(=CC(=O)O)OC)c(O)c3c(O)c2C(=O)CC1(C)O (centres unmarked) [spectomycin B1]	4.4
